Entries after “also recorded” stand apart in the source; their conditions may differ.
Columns and labels:
[1] = Plasma protein binding (rapid equilibrium dialysis), human plasma; type: in vitro ADME; settings: plasma concentration of 3.27 μM
Method: Plasma Protein Binding. Plasma protein binding of DPC-046 was determined in human and mouse plasma using rapid equilibrium dialysis (RED) devices manufactured by Thermo Fisher Scientific. Plasma pH was adjusted to 7.4 and spiked with DPC-046 to a final plasma concentration of 1 μg/ml. Aliquots (500 μl) of the spiked plasma were placed into the sample chamber, and 750 μl of phosphate-buffered saline were placed into the adjacent chamber. Triplicate samples were loaded into the RED devices. The RED devices were incubated at 37° C. on an orbital shaker operating at 100 rpm for 24 h. […] After the incubation, aliquots of plasma and buffer were removed for the analysis of DPC-046 concentration by LC-MS-MS as described above.

BxPC3 DPC-4(−/−) cells = experiment: Measurement of cell cycle (PI flow cytometry); type: cell-based, Human; settings: 24 to 72 h
Method: Measurement of Cell Cycle. The percentage of cells in different cell cycle phases of division was measured by flow cytometry (Darzynkiewicz et al., 1996) using propidium iodide (PI) (Sigma-Aldrich). In brief, cells were treated with PC-046 for 24 to 72 h, fixed with 70% ethanol overnight, and then stained with 40 µg/ml PI and 0.5 mg/ml RNase A for 30 min at 37° C. PI fluorescence was measured on a FACScan (BD Biosciences, San Jose, Calif.) and analyzed using Mod-Fit (Verify Software, Topsham, Me.). Data are mean S.E.M. (n 3).
(§1) Mean±S.E.M., n=3. […] Mean±S.E.M., n=3. […] Mean tumor burden is shown.

PIM-1 [2] = biological target: T1, PIM-1 (Homo sapiens, UniProt P11309); experiment: Initial kinase screening (Amphora), PIM-1; type: biochemical; set-up: assay run by Amphora Discovery Corporation (Durham, N.C.); settings: 10 μM compound
Method: (§2) Kinase Screening. Initial kinase screening was performed by Amphora Discovery Corporation (Durham, N.C.).

PDGFRα = biological target: T2, PDGFRα (Homo sapiens, UniProt P16234); experiment: Initial kinase screening (Amphora), PDGFRα; type: biochemical; settings: 10 μM compound
T2 construct: assay run by Amphora Discovery Corporation (Durham, N.C.)
Method: as §2

TrkB = TrkB (Homo sapiens, UniProt Q16620); experiment: Initial kinase screening (Amphora), TrkB; type: biochemical; set-up: assay run by Amphora Discovery Corporation (Durham, N.C.); settings: 10 μM compound
Method: as §2

IRAK-4 = biological target: T3, IRAK-4 (Homo sapiens, UniProt Q9NWZ3); experiment: Follow-up kinase screening and IC50 (SignalChem), IRAK-4; type: biochemical
T3 construct: assay run by SignalChem Pharmaceuticals, Inc. (Richmond, BC, Canada)

PIM-1 [3] = biological target: T1, PIM-1; experiment: Follow-up kinase screening and IC50 (SignalChem), PIM-1; type: biochemical; set-up: assay run by SignalChem Pharmaceuticals, Inc. (Richmond, BC, Canada)
MCF7 = experiment: IC50 in tumor cell lines (MCF7); type: cell-based; settings: Table 2; breast tumor cell line MCF7
Method: (§3) Cytotoxicity Assays. Cytotoxicity assays in the mechanism of action studies were performed according to Mosmann (1983), wherein the activity of mitochondrial reductases were measured using 3-(4,5-dimethylthiozol-3-yl)-2,5-diphenyltetrozolium bromide dye. In brief, cells were seeded in 96-well plates and incubated for various times at 37° C. Inhibition of cell growth was measured by adding 3-(4,5-dimethylthiozol-3-yl)-2,5-diphenyltetrozolium bromide dye, and after an additional 4 h of incubation at 37° C., the 96-well plates were centrifuged, and the culture supernatant was removed. DMSO was added to each well to solubilize the formazan crystals, and the optical density was read at 540 nm on a Quant Spectrophotometer (BioTek Instruments, Winooski, Vt.). Cell growth inhibition data are expressed as percentage of survival compared with untreated cells. The IC50 is defined as the drug concentration required to produce 50% growth inhibition. Results are mean S.E.M. (n 3).

MDA231 = experiment: IC50 in tumor cell lines (MDA231); type: cell-based; settings: Table 2; breast tumor cell line MDA231
Method: as §3

[4] = system: BxPC3 DPC-4(+/+) and BxPC3 DPC-4(−/−) cells; experiment: Cytotoxicity (96-h MTT) in isogenic BxPC3 cell lines; type: cell-based, Human; settings: BxPC3 cell lines
Method: Cell lines and Culture Conditions. Human pancreatic cancer cell lines MiaPaCa-2 (Yunis et al., 1977), Panc-1 (Lieber et al., 1975), and BxPC3 (Tan et al., 1986) were purchased from the American Type Culture Collection (Manassas, Va.) and cultured in a humidified incubator at 37° C., 5% CO2, in RPMI 1640 medium (CellGro, Manassas, Va.) supplemented with 10% heat-inactivated bovine calf serum, 2 mM L-glutamine, 100 U/ml penicillin, and 100 µg/ml streptomycin (Invitrogen, Carlsbad, Calif.). MiaPaCa-2 (CRL-1420) is an adherent epithelial human pancreatic cancer cell line with a doubling time of approximately 40 h (Yunis et al., 1977). Panc-1 (CRL-1469) is an undifferentiated human pancreatic epithelial cell line with a doubling time of approximately 52 h (Lieber et al., 1975). The BxPC3 cell line DPC-4(−/−) and its isogenic restored wild-type DPC-4(+/+) cell line were developed and cultured as described previously (Wang et al., 2006). In brief, a DPC-4-expressing construct (pMSCVneoDPC-4) was created by amplifying full-length cDNA of DPC-4 using reverse transcriptase-PCR and subcloning into the multiple cloning site of a retroviral vector (pMSCVneo). The DPC-4-expressing construct was cotransfected into the BxPC3 DPC-4(−/−) cells using a packaging cell line, resulting in a cell line that constitutively expresses DPC-4. The expression of DPC-4 was confirmed by Western blotting (Wang et al., 2006).
as §3, §1

PC3 = experiment: IC50 in tumor cell lines (PC3); type: cell-based; settings: prostate tumor cell line PC3
Method: as §3

[5] = Storage stability by LC-MS; type: physicochemical
Method: Stability Studies. LC-MS was used to evaluate the stability of DPC-046 kept at −20° C. or at 22° C., unprotected from light. After 2 years of storage, there was a measurable (8.6%) loss of parent compound when stored at −20° C. in the dark and a 43.6% loss at 22° C. in light.

[6] = 25 μM DPC-046, follow-up screen
[7] = highest concentration tested (50 μM)

T1 sequence (P11309 whole entry): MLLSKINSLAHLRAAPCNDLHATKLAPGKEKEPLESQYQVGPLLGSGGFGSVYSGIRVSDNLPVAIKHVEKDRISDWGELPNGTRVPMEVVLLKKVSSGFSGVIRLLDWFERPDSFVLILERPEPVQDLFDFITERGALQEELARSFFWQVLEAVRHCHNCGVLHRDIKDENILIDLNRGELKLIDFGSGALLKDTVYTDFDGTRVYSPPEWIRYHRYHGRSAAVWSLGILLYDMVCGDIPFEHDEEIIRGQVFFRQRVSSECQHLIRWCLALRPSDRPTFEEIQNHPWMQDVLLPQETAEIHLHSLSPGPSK
T3 sequence (Q9NWZ3 whole entry): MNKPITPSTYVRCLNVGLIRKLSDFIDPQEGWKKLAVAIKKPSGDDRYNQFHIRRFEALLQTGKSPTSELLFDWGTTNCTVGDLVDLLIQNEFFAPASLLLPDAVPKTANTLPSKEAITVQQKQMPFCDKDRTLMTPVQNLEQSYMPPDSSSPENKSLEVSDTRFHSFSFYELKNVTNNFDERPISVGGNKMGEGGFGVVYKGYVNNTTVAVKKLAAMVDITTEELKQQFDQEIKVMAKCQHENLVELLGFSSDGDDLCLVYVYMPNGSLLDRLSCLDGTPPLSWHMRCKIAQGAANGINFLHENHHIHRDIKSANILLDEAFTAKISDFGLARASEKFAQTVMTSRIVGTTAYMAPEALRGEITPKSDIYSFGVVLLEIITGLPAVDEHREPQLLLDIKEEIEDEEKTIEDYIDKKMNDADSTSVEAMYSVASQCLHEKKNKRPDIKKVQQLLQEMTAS
T2 sequence (P16234 24-1089, species assumed): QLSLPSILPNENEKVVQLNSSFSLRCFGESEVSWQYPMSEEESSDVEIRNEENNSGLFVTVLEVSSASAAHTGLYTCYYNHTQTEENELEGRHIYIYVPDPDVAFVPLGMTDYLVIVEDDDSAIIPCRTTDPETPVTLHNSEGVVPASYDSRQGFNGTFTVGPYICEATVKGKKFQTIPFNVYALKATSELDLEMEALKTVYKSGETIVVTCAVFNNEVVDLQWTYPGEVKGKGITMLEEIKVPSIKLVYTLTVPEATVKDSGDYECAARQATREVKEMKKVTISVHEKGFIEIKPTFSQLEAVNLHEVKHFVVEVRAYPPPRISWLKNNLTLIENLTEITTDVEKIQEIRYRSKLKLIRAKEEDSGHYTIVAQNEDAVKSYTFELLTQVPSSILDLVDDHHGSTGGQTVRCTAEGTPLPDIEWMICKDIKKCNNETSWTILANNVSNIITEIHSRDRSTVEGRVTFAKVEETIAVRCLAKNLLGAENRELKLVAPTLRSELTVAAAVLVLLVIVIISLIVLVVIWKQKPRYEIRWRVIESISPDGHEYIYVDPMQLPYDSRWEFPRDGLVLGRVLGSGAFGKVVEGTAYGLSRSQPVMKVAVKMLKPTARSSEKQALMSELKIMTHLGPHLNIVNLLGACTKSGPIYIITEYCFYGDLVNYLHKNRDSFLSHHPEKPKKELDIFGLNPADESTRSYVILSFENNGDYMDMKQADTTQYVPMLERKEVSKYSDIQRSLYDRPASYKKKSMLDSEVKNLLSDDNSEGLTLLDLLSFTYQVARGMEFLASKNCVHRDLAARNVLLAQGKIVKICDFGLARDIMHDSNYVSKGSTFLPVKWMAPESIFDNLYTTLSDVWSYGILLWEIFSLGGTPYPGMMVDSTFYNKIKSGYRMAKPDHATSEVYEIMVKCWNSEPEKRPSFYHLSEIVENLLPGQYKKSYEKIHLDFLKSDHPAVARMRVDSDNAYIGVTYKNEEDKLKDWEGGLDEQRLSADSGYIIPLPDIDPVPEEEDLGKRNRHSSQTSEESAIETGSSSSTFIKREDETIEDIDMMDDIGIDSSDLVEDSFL
Chain of TrkB (Q16620 32-822): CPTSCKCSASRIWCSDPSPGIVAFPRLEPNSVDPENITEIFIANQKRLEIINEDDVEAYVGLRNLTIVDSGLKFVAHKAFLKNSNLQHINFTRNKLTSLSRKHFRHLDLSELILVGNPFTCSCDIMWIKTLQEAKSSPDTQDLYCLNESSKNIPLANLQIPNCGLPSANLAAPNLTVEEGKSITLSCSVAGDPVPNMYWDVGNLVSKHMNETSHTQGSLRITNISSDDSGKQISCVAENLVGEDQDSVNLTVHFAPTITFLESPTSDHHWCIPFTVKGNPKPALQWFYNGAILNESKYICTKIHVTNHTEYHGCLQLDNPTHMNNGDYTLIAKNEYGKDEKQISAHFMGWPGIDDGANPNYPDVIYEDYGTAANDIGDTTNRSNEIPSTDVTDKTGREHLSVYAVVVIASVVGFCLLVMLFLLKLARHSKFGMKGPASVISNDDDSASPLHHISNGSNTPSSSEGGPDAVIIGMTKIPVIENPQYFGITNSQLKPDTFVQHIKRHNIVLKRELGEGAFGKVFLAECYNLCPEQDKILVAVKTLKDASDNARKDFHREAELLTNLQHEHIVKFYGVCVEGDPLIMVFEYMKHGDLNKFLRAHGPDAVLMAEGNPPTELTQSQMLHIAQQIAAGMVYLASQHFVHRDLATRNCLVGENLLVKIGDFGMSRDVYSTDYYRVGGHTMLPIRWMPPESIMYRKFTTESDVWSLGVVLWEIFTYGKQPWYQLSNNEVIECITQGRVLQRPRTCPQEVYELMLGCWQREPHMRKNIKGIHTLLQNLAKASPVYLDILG

## COc1ccc(-c2cnc(-c3ccncc3-c3cccc(OC)c3)o2)cc1 [DPC046]
[1]
  bound to plasma proteins: 85%
BxPC3 DPC-4(−/−) cells; listed as (D)PC-046
  effect on cell cycle phases (in words): block in the S and G2/M-phases
BxPC3 DPC-4(−/−) cells; listed as DPC-046
  effect on cell cycle phases (in words): reduction in the percentage of G0/G1-phase cells and a commensurate increase in G2/M-phase cells
PIM-1 [2]
  inhibition of PIM-1: 50%
PDGFRα
  inhibition of PDGFRα: 46%
TrkB
  inhibition of TrkB: 55%
IRAK-4; [6]
  inhibition of IRAK-4: more than 70%
IRAK-4; [7]
  inhibition of IRAK-4: 92%
PIM-1 [3]; [6]
  inhibition of PIM-1: more than 70%
PIM-1 [3]; eight-point concentration range 10 nM to 50 μM
  IC50: 19.1 µM
PIM-1 [3]; [7]
  inhibition of PIM-1: 84%
MCF7
  IC50: 11 nM
MDA231
  IC50: 17 nM
[4]; listed as DPC-046
  potency against BxPC3 cell lines (in words): most potent; also recorded: greatest cytotoxicity
[4]; listed as PC-046
  potency against BxPC3 cell lines (in words): high potency
PC3; Table 1
  IC50: 6.5 nM
PC3; Table 2
  IC50: 6.5 nM
[5]; 2 years of storage at 22° C. in light
  loss of parent compound: 43.6%
[5]; 2 years of storage at −20° C. in the dark
  loss of parent compound: 8.6%
